Test results from publication PMC11962085, “Molecular mechanisms of urate transport by the native human URAT1 and its inhibition by anti-gout drugs” (Cell Discovery, 2025).
Changes are numbered by the printed parent chain.

How the values were obtained:
[1] = set-up: method as in PMID 26378978, PMID 30415602; settings: high-risk patients; cited from earlier work
[2] = molecular target: T1, hURAT1 F364Y-F365Y (Homo sapiens, UniProt Q96S37, F364Y/F365Y); experiment: 14C-urate uptake inhibition assay, hURAT1 F364Y-F365Y mutant in HEK293 cells; type: cell-based; settings: for IC50: F364Y-F365Y hURAT1, HEK293 cells, 14C-urate uptake, n=3-8, N.A., not active, read-out: pIC50 (Mean ± SEM) (converted)
T1 construct: Flag; expressed in transfected cells; host or cells: HEK293
T1 sequence (Q96S37 1-553 F364Y/F365Y): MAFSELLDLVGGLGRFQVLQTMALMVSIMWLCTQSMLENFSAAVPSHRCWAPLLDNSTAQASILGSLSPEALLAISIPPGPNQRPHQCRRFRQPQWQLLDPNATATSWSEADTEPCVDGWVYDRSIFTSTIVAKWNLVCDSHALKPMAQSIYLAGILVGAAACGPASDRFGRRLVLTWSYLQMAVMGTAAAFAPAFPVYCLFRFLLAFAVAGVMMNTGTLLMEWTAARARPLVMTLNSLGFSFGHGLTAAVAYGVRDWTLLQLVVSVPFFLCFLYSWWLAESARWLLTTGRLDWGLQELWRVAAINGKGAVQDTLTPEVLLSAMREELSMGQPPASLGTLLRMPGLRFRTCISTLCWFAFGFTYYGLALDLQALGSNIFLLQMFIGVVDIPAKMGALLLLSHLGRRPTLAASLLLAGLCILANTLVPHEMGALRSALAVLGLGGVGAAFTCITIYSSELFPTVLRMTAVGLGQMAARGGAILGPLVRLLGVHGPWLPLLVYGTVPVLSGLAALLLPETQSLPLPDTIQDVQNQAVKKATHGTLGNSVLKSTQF
Protocol: (§1) The cells were seeded at a density of 30,000 cells per well in Isoplate-96 plates (Perkin Elmer).

[3] = molecular target: T2, hURAT1 F360A (Homo sapiens, UniProt Q96S37, F360A); experiment: 14C-urate uptake inhibition assay, hURAT1 F360A mutant in HEK293 cells; type: cell-based; settings: for IC50: F360A hURAT1, HEK293 cells, 14C-urate uptake, n=3-8, read-out: pIC50 (Mean ± SEM) (converted); for effect of alanine substitution at F360 on inhibition: F360A vs wild-type URAT1, in words
T2 construct: Flag; expressed in transfected cells; host or cells: HEK293
T2 sequence (Q96S37 1-553 F360A): T1 sequence (Q96S37 1-553 F364Y/F365Y) with F360A, Y364F, Y365F
Protocol: as §1

[4] = molecular target: T3, hURAT1 F449A (Homo sapiens, UniProt Q96S37, F449A); experiment: 14C-urate uptake inhibition assay, hURAT1 F449A mutant in HEK293 cells; type: cell-based
T3 construct: Flag; expressed in transfected cells; host or cells: HEK293
T3 sequence (Q96S37 1-553 F449A): T1 sequence (Q96S37 1-553 F364Y/F365Y) with Y364F, Y365F, F449A
Protocol: as §1

[5] = molecular target: T4, hURAT1 R477K (Homo sapiens, UniProt Q96S37, R477K); experiment: 14C-urate uptake inhibition assay, hURAT1 R477K mutant in HEK293 cells; type: cell-based; settings: for IC50: R477K hURAT1, HEK293 cells, 14C-urate uptake, n=3-8, read-out: pIC50 (Mean ± SEM) (converted)
T4 construct: Flag; expressed in transfected cells; host or cells: HEK293
T4 sequence (Q96S37 1-553 R477K): T1 sequence (Q96S37 1-553 F364Y/F365Y) with Y364F, Y365F, R477K
Protocol: as §1

Question: With `OC[C@H]1O[C@@H](c2ccc(Cl)c(Cc3ccc(O[C@H]4CCOC4)cc3)c2)[C@H](O)[C@@H](O)[C@@H]1O` [empagliflozin] as the compound, how does the “relative risk reduction in cardiovascular death” value [1] read?
Answer: Its value is 38%.

Question: For `O=C(O)CSc1nnc(Br)n1-c1ccc(C2CC2)c2ccccc12` [lesinurad], which “effect of changing F364 and F365 to tyrosine on inhibition” value ([2]; F364Y-F365Y vs wild-type URAT1, in words) is on record?
Answer: The value was “nearly abolishes the inhibitory effects”.

Question: With `CC(C)(Sc1ccncc1-c1ccc(C#N)c2ccccc12)C(=O)O` [verinurad] as the compound, how does the IC50 [3] read?
Answer: The IC50 was 56.2 nM.

Question: And the IC50 [2]?
Answer: The IC50 was 245000 nM.

Question: What about the IC50 ([4]; F449A hURAT1, HEK293 cells, 14C-urate uptake, n=3-8, read-out: pIC50 (Mean ± SEM) (converted)) of the same compound?
Answer: The IC50 was 126 nM.

Question: What about the IC50 [5] of the same compound?
Answer: The IC50 was 513 nM.

Question: What does the source list for `CCc1oc2ccccc2c1C(=O)c1cc(Br)c(O)c(Br)c1` [benzbromarone]?
Answer: effect of alanine substitution at F360 on inhibition [3]: significantly diminish the inhibitory effectiveness; effect of alanine substitution at F449 on inhibition ([4]; F449A vs wild-type URAT1, in words): significantly diminish the inhibitory effectiveness; effect of mutation of R477 to lysine on potency ([5]; R477K vs wild-type URAT1, in words): slightly reduced the potency

Question: What does the source list for `O=C(c1cc(Cl)c(O)c(Cl)c1)N1CS(=O)(=O)c2ccccc21` [dotinurad]?
Answer: IC50 [3]: 3160 nM; effect of alanine substitution at F360 on inhibition [3]: markedly reduces the effectiveness; IC50 [2]: 123 nM; IC50 [5]: 22.9 nM
